Patent publication US20180028553A1, “USE OF STING AGONIST AS CANCER TREATMENT” (The University of Chicago, priority 2013, published 2018)
Entries after “also recorded” stand apart in the source; their conditions may differ.

Legend:
[1] = system: innate cytokines in BM-DCs; assay: Quantitative RT-PCR analysis of cytokines in BM-DCs; format: cell-based, mouse; conditions: DMXAA 25 μg/ml, 4 h
Experimental: Quantitative RT-PCR analysis of cytokines. […] Total RNA was isolated using the RNeasy® kit (Qiagen) and incubated with Deoxyribonuclease I, Amplification Grade (Invitrogen). cDNA was synthesized using High Capacity cDNA Reverse Transcription Kit (Applied Biosystem) and expression of cytokines was measured by real-time qRT-PCR using specific primers/probes for mouse INF-β, TNF-α, IL-6 and IL-12p40, using a 7300 Real Time PCR system (Applied Biosystem). The results are expressed as 2^−ΔCt using 18s as endogenous control.

[2] = system: STING pathway (TBK1, IRF3 phosphorylation); assay: Western blot of pTBK1 and pIRF3 in macrophages and BM-DCs after STING agonist; format: cell-based, mouse
Experimental: DMXAA for the same time-points. Proteins were extracted with Triton-X buffer (150 mM sodium chloride, 50 mM Tris, 1% Triton-X, pH 8.0) with proteinase inhibitors (Thermo scientific) and phosphatase inhibitors (Sigma). 30 μg of protein was electrophoresed in 10% SDS-PAGE gels and transferred onto Immobilon-FL membranes (Millipore). Blots were incubated with antibodies specific for phosphorylated TBK1 (Ser172), phosphorylated IRF3 (Ser396), total TBK1, STING and GAPDH (Cell Signaling) or total IRF3 (Invitrogen). Proteins from HEK 293T lines stably expressing STING were extracted with M-PER (Thermo Scientific). 6 μg of protein was loaded onto a 4-12% MES NuPAGE gel (Life Technologies), transferred to nitrocellulose, and probed with anti-HA antibody (Santa Cruz). Anti-rabbit IRDye 680RD label secondary antibody was used for visualization of bands with the Odyssey Imaging system (LI-COR).

## Cc1ccc2c(=O)c3cccc(CC(=O)O)c3oc2c1C [DMXAA, 5,6-dimethylXAA (xanthenone-4-acetic acid)]
[1]; STING^−/− BM-DCs
  expression of innate cytokines: not STING^−/− BM-DCs
[1]; WT BM-DCs
  expression of innate cytokines: upregulated other cytokines such as TNFα, IL6, IL1, IL10, and IL12 in a STING dependent manner; also recorded: IFN-β, TNF-α, IL-1β, IL-6 and IL12p35 were induced
[2]; BM-DC from WT or STING ko mice
  activation of the STING pathway (pTBK1, pIRF3): same potent activation of the pathway
[2]; STING deficient macrophages, DMXAA 50 μg/ml
  phosphorylation of TBK1 and IRF3: not in STING deficient cells; also recorded: abolished
[2]; STING^−/− macrophages reconstituted with mSTING-HA, DMXAA
  phosphorylation of TBK1 and IRF3: restored phosphorylation of TBK1 and IRF3
[2]; WT macrophages, DMXAA 50 μg/ml or ML RR-S2 CDA 50 μM
  phosphorylation of TBK1 and IRF3: rapid and potent phosphorilation of TBK1 and IRF3; also recorded: phosphorylation of TBK1 and IRF3 was observed
